Experimental data taken from PMC12454493, “Insight on novel sulfamoylphenyl pyrazole derivatives as anticancer carbonic anhydrase inhibitors” (Molecular Diversity, 2024).
Several values for one entry are separate records, joined by “and”; a condition that tells them apart may be missing. Identical values can stand only once.

How the values were obtained:
HOP-92 = experiment: NCI-60 one-dose SRB screen (Non-Small Cell Lung Cancer); type: cell-based; details: Homo sapiens, single dose 10 µM, 48 h, read-out: Growth inhibition percent (GI %)
NCI-H226 = experiment: as above; type: cell-based; details: Homo sapiens, single dose 10 µM, 48 h, read-out: Growth inhibition percent (GI %)
HOP-62 = experiment: as above; type: cell-based; details: Homo sapiens, single dose 10 µM, 48 h, read-out: Growth inhibition percent (GI %)
NCI-H322M = experiment: as above; type: cell-based; details: Homo sapiens, single dose 10 µM, 48 h, read-out: Growth inhibition percent (GI %)
NCI-H23 = experiment: as above; type: cell-based; details: Homo sapiens, single dose 10 µM, 48 h, read-out: Growth inhibition percent (GI %)
NCI-H522 = experiment: as above; type: cell-based; details: Homo sapiens, single dose 10 µM, 48 h, read-out: Growth inhibition percent (GI %)
A549/ATCC = experiment: as above; type: cell-based; details: Homo sapiens, single dose 10 µM, 48 h, read-out: Growth inhibition percent (GI %)
NCI-H460 = experiment: as above; type: cell-based; details: Homo sapiens, single dose 10 µM, 48 h, read-out: Growth inhibition percent (GI %)
EKVX = experiment: as above; type: cell-based; details: Homo sapiens, single dose 10 µM, 48 h, read-out: Growth inhibition percent (GI %)
SK-MEL-2 = experiment: NCI-60 one-dose SRB screen (Melanoma); type: cell-based; details: Homo sapiens, single dose 10 µM, 48 h, read-out: Growth inhibition percent (GI %)
UACC-62 = experiment: NCI-60 one-dose SRB screen (Melanoma); type: cell-based; details: Homo sapiens, single dose 10 µM, 48 h, read-out: Growth inhibition percent (GI %)
UACC-257 = experiment: NCI-60 one-dose SRB screen (Melanoma); type: cell-based; details: Homo sapiens, single dose 10 µM, 48 h, read-out: Growth inhibition percent (GI %)
M14 = experiment: NCI-60 one-dose SRB screen (Melanoma); type: cell-based; details: Homo sapiens, single dose 10 µM, 48 h, read-out: Growth inhibition percent (GI %)
MALME-3M = experiment: NCI-60 one-dose SRB screen (Melanoma); type: cell-based; details: Homo sapiens, single dose 10 µM, 48 h, read-out: Growth inhibition percent (GI %)
SK-MEL-5 = experiment: NCI-60 one-dose SRB screen (Melanoma); type: cell-based; details: Homo sapiens, single dose 10 µM, 48 h, read-out: Growth inhibition percent (GI %)
SK-MEL-28 = experiment: NCI-60 one-dose SRB screen (Melanoma); type: cell-based; details: Homo sapiens, single dose 10 µM, 48 h, read-out: Growth inhibition percent (GI %)
hCA XII = hCA XII (Homo sapiens, UniProt O43570); experiment: CA inhibitory activity, spectrophotometric p-NPA assay; type: biochemical; details: p-NPA substrate, pH 7.5, 25 °C, triplicate; read-out: IC50 (µM) ± SD hCA XII
Procedure: (§1) The software used to calculate CA IC50 along with statistical analysis of the results is GraphPad Prism 9.00. Results were estimated by using one-way ANOVA and the Bonferroni’s multiple comparisons posthoc test was performed (P < 0.05) [46]
Carbonic anhydrase inhibitory activity:
(§2) The spectrophotometric assay was conducted in HEPES-Tris buffer, NaCl of pH 7.5 (20mM) at 25◦C. Each inhibitory well-consisted of 50 μL of assay buffer solution, 20 μL of hCA enzyme solution (20 ng/μL in Assay Buffer), and 50 μL of test compound in HPLC grade DMSO (maintain 10% of the final concentration). The mixture solution was
(§3) Substrate p-nitrophenyl acetate (p-NPA) (0.7mM) was prepared in HPLC grade methanol and the reaction was started by adding 20 μL to a well in a 96-well-plate. The amount of product formed was measured for 30 min continuously at 1 min intervals at 400 nm in a 96-well-plate using xMARK microplate spectrophotometer, Bio-Rad (USA). The activity of the controlled compound was taken as 100%. All experiments were carried out in triplicates of each used concentration, and results are represented as a

RPMI-8226 = experiment: NCI-60 one-dose SRB screen (Leukemia); type: cell-based; details: Homo sapiens, single dose 10 µM, 48 h, read-out: Growth inhibition percent (GI %)
MOLT-4 = experiment: NCI-60 one-dose SRB screen (Leukemia); type: cell-based; details: Homo sapiens, single dose 10 µM, 48 h, read-out: Growth inhibition percent (GI %)
SR = experiment: NCI-60 one-dose SRB screen (Leukemia); type: cell-based; details: Homo sapiens, single dose 10 µM, 48 h, read-out: Growth inhibition percent (GI %)
K-562 = experiment: NCI-60 one-dose SRB screen (Leukemia); type: cell-based; details: Homo sapiens, K562, single dose 10 µM, 48 h, read-out: Growth inhibition percent (GI %)
HL-60(TB) = experiment: NCI-60 one-dose SRB screen (Leukemia); type: cell-based; details: Homo sapiens, single dose 10 µM, 48 h, read-out: Growth inhibition percent (GI %)
CCRF-CEM = experiment: NCI-60 one-dose SRB screen (Leukemia); type: cell-based; details: Homo sapiens, single dose 10 µM, 48 h, read-out: Growth inhibition percent (GI %)
COLO 205 = experiment: NCI-60 one-dose SRB screen (Colon Cancer); type: cell-based; details: Homo sapiens, single dose 10 µM, 48 h, read-out: Growth inhibition percent (GI %)
HCC-2998 = experiment: NCI-60 one-dose SRB screen (Colon Cancer); type: cell-based; details: Homo sapiens, single dose 10 µM, 48 h, read-out: Growth inhibition percent (GI %)
HCT-15 = experiment: NCI-60 one-dose SRB screen (Colon Cancer); type: cell-based; details: Homo sapiens, single dose 10 µM, 48 h, read-out: Growth inhibition percent (GI %)
HT29 = experiment: NCI-60 one-dose SRB screen (Colon Cancer); type: cell-based; details: Homo sapiens, HT-29, single dose 10 µM, 48 h, read-out: Growth inhibition percent (GI %)
KM12 = experiment: NCI-60 one-dose SRB screen (Colon Cancer); type: cell-based; details: Homo sapiens, single dose 10 µM, 48 h, read-out: Growth inhibition percent (GI %)
HCT-116 = experiment: NCI-60 one-dose SRB screen (Colon Cancer); type: cell-based; details: Homo sapiens, single dose 10 µM, 48 h, read-out: Growth inhibition percent (GI %)
SW-620 = experiment: NCI-60 one-dose SRB screen (Colon Cancer); type: cell-based; details: Homo sapiens, single dose 10 µM, 48 h, read-out: Growth inhibition percent (GI %)
hCA IX = hCA IX (Homo sapiens, UniProt Q16790); experiment: CA inhibitory activity, spectrophotometric p-NPA assay; type: biochemical; details: for IC50: p-NPA substrate, pH 7.5, 25 °C, triplicate, read-out: IC50 (µM) ± SD hCA IX
Procedure: as §1
Carbonic anhydrase inhibitory activity:
as §2, §3

DU-145 = experiment: NCI-60 one-dose SRB screen (Prostate Cancer); type: cell-based; details: Homo sapiens, single dose 10 µM, 48 h, read-out: Growth inhibition percent (GI %)
PC-3 = experiment: NCI-60 one-dose SRB screen (Prostate Cancer); type: cell-based; details: Homo sapiens, single dose 10 µM, 48 h, read-out: Growth inhibition percent (GI %)
SF-268 = experiment: NCI-60 one-dose SRB screen (CNS Cancer); type: cell-based; details: Homo sapiens, single dose 10 µM, 48 h, read-out: Growth inhibition percent (GI %)
SF-295 = experiment: NCI-60 one-dose SRB screen (CNS Cancer); type: cell-based; details: Homo sapiens, single dose 10 µM, 48 h, read-out: Growth inhibition percent (GI %)
SF-539 = experiment: NCI-60 one-dose SRB screen (CNS Cancer); type: cell-based; details: Homo sapiens, single dose 10 µM, 48 h, read-out: Growth inhibition percent (GI %)
SNB-75 = experiment: NCI-60 one-dose SRB screen (CNS Cancer); type: cell-based; details: Homo sapiens, single dose 10 µM, 48 h, read-out: Growth inhibition percent (GI %)
SNB-19 = experiment: NCI-60 one-dose SRB screen (CNS Cancer); type: cell-based; details: Homo sapiens, single dose 10 µM, 48 h, read-out: Growth inhibition percent (GI %)
U251 = experiment: NCI-60 one-dose SRB screen (CNS Cancer); type: cell-based; details: Homo sapiens, U-251, single dose 10 µM, 48 h, read-out: Growth inhibition percent (GI %)
ACHN = experiment: NCI-60 one-dose SRB screen (Renal Cancer); type: cell-based; details: Homo sapiens, single dose 10 µM, 48 h, read-out: Growth inhibition percent (GI %)
TK-10 = experiment: NCI-60 one-dose SRB screen (Renal Cancer); type: cell-based; details: Homo sapiens, single dose 10 µM, 48 h, read-out: Growth inhibition percent (GI %)
SN12C = experiment: NCI-60 one-dose SRB screen (Renal Cancer); type: cell-based; details: Homo sapiens, single dose 10 µM, 48 h, read-out: Growth inhibition percent (GI %)
RXF 393 = experiment: NCI-60 one-dose SRB screen (Renal Cancer); type: cell-based; details: Homo sapiens, single dose 10 µM, 48 h, read-out: Growth inhibition percent (GI %)
UO-31 = experiment: NCI-60 one-dose SRB screen (Renal Cancer); type: cell-based; details: Homo sapiens, single dose 10 µM, 48 h, read-out: Growth inhibition percent (GI %)
A498 = experiment: NCI-60 one-dose SRB screen (Renal Cancer); type: cell-based; details: Homo sapiens, single dose 10 µM, 48 h, read-out: Growth inhibition percent (GI %)
CAKI-1 = experiment: NCI-60 one-dose SRB screen (Renal Cancer); type: cell-based; details: Homo sapiens, single dose 10 µM, 48 h, read-out: Growth inhibition percent (GI %)
786-0 = experiment: NCI-60 one-dose SRB screen (Renal Cancer); type: cell-based; details: Homo sapiens, single dose 10 µM, 48 h, read-out: Growth inhibition percent (GI %)

hCA XII, sequence (O43570 25-354): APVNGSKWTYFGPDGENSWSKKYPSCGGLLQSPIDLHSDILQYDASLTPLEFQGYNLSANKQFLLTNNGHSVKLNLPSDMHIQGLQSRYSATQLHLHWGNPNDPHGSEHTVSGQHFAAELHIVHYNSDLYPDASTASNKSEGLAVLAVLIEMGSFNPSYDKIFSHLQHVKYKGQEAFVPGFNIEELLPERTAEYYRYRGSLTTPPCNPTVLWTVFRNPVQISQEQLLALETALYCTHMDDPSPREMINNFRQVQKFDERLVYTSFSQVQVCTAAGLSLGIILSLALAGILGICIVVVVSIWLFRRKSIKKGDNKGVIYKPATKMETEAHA

CCOC(=O)c1ccc(NC(=O)COC(=O)c2cn(-c3ccc(S(N)(=O)=O)cc3)nc2-c2ccc(S(C)(=O)=O)cc2)cc1 [Compound 5e, 2-[(4-(Ethoxycarbonyl)phenyl)amino]-2-oxoethyl 3-(4-(methylsulfonyl)phenyl)-1-(4-sulfamoylphenyl)-1H-pyrazole-4-carboxylate]
inhibition at 10 µM (HOP-92): < 5%
inhibition at 10 µM (NCI-H226): < 5%
inhibition at 10 µM (HOP-62): < 5%
inhibition at 10 µM (NCI-H322M): < 5%
inhibition at 10 µM (NCI-H23): 8.79%
inhibition at 10 µM (NCI-H522): 13.5%
inhibition at 10 µM (A549/ATCC): < 5%
inhibition at 10 µM (NCI-H460): < 5%
inhibition at 10 µM (EKVX): < 5%
inhibition at 10 µM (SK-MEL-2): < 5%
inhibition at 10 µM (UACC-62): 15.8%
inhibition at 10 µM (UACC-257): < 5%
inhibition at 10 µM (M14): < 5%
inhibition at 10 µM (MALME-3M): < 5%
inhibition at 10 µM (SK-MEL-5): < 5%
inhibition at 10 µM (SK-MEL-28): < 5%
IC50 (hCA XII): 0.16 µM and 0.167 µM
inhibition at 10 µM (RPMI-8226): 6.03%
inhibition at 10 µM (MOLT-4): < 5%
inhibition at 10 µM (SR): 22.1%
inhibition at 10 µM (K-562): 9.58%
inhibition at 10 µM (HL-60(TB)): 6.26%
inhibition at 10 µM (CCRF-CEM): 9.47%
inhibition at 10 µM (COLO 205): < 5%
inhibition at 10 µM (HCC-2998): < 5%
inhibition at 10 µM (HCT-15): < 5%
inhibition at 10 µM (HT29): < 5%
inhibition at 10 µM (KM12): < 5%
inhibition at 10 µM (HCT-116): < 5%
inhibition at 10 µM (SW-620): < 5%
Ki (hCA IX): 40 nM
IC50 (hCA IX): 0.04 ± 0.002 µM
inhibition at 10 µM (DU-145): < 5%
inhibition at 10 µM (PC-3): < 5%
inhibition at 10 µM (SF-268): 5.8%
inhibition at 10 µM (SF-295): < 5%
inhibition at 10 µM (SF-539): 11.8%
inhibition at 10 µM (SNB-75): 19.6%
inhibition at 10 µM (SNB-19): 8.29%
inhibition at 10 µM (U251): 5.78%
inhibition at 10 µM (ACHN): 8.32%
inhibition at 10 µM (TK-10): < 5%
inhibition at 10 µM (SN12C): 7.85%
inhibition at 10 µM (RXF 393): < 5%
inhibition at 10 µM (UO-31): 21.9%
inhibition at 10 µM (A498): 19.7%
inhibition at 10 µM (CAKI-1): 30.8%
inhibition at 10 µM (786-0): 13.2%

Cc1ccc(-c2nn(-c3ccc(S(N)(=O)=O)cc3)cc2C(=O)OCC(=O)Nc2nnc(S(N)(=O)=O)s2)cc1 [Compound 6b, 2-Oxo-2-[(5-sulfamoyl-1,3,4-thiadiazol-2-yl)amino] ethyl 1-(4-sulfamoylphenyl)-3-(p-tolyl)-1H-pyrazole-4-carboxylate]
inhibition at 10 µM (HOP-92): 22.2%
inhibition at 10 µM (NCI-H226): 13.3%
inhibition at 10 µM (HOP-62): < 5%
inhibition at 10 µM (NCI-H322M): < 5%
inhibition at 10 µM (NCI-H23): 9.63%
inhibition at 10 µM (NCI-H522): < 5%
inhibition at 10 µM (A549/ATCC): < 5%
inhibition at 10 µM (NCI-H460): < 5%
inhibition at 10 µM (EKVX): 7.25%
inhibition at 10 µM (SK-MEL-2): < 5%
inhibition at 10 µM (UACC-62): 14.4%
inhibition at 10 µM (UACC-257): < 5%
inhibition at 10 µM (M14): < 5%
inhibition at 10 µM (MALME-3M): 10.9%
inhibition at 10 µM (SK-MEL-5): 23%
inhibition at 10 µM (SK-MEL-28): < 5%
IC50 (hCA XII): 1.7 ± 0.064 µM
inhibition at 10 µM (RPMI-8226): < 5%
inhibition at 10 µM (MOLT-4): 7.13%
inhibition at 10 µM (SR): 15.7%
inhibition at 10 µM (K-562): 16.7%
inhibition at 10 µM (HL-60(TB)): < 5%
inhibition at 10 µM (CCRF-CEM): 6.03%
inhibition at 10 µM (COLO 205): < 5%
inhibition at 10 µM (HCC-2998): < 5%
inhibition at 10 µM (HCT-15): < 5%
inhibition at 10 µM (HT29): < 5%
inhibition at 10 µM (KM12): < 5%
inhibition at 10 µM (HCT-116): < 5%
inhibition at 10 µM (SW-620): < 5%
IC50 (hCA IX): 0.339 ± 0.016 µM
inhibition at 10 µM (DU-145): < 5%
inhibition at 10 µM (PC-3): 7.13%
inhibition at 10 µM (SF-268): 9.87%
inhibition at 10 µM (SF-295): < 5%
inhibition at 10 µM (SF-539): 7.75%
inhibition at 10 µM (SNB-75): 23.9%
inhibition at 10 µM (SNB-19): 5.72%
inhibition at 10 µM (U251): < 5%
inhibition at 10 µM (ACHN): < 5%
inhibition at 10 µM (TK-10): < 5%
inhibition at 10 µM (SN12C): < 5%
inhibition at 10 µM (RXF 393): < 5%
inhibition at 10 µM (UO-31): 10.8%
inhibition at 10 µM (A498): 7.37%
inhibition at 10 µM (CAKI-1): 28%
inhibition at 10 µM (786-0): 5.95%
